Data as given in patent US20060121498A1, “Enzymes involved in apoptosis” (EiRx Therapeutics Limited, priority 2003, published 2006).
Like-named read-outs stand apart in the source and are kept apart here.

Assays:
[1] = cited from earlier work
neutrophils = experiment: Neutrophil apoptosis, sub G1 analysis (DNA fragmentation); format: cell-based, human
Method: Neutrophils are isolated from the blood as described in WO 02/04657 and resuspended at a concentration of 2×10^6/ml. Five hundred microlitres are pipetted into wells of a 24 well plate and incubated in the presence or absence of survival factors.
After this incubation, the neutrophils are carefully resuspended by gentle agitation and the total contents of the well are placed into an eppendorf and centrifuged @2800 rpm for 2 min @ RT in a minifuge. The cell pellet is carefully resuspended in 300 μl of ice cold hypotonic fluorochrome solution (50 μg/ml Propidium Iodide, 0.1% Sodium Citrate and 0.1% Triton X-100) and placed in a fridge for 24 h @ 4° C.
Prepared samples are analysed with a FacsCalibre flow cytometer (Becton Dickinson) using double discrimination to ensure single cell suspension with Log Forward and Side Scatter Parameter acquisition.
Neutrophils are seeded at 2×10^6/ml in a 24 well plate in full culture medium (1 ml/well). A PI3K inhibitor (Ly94002) is added to the neutrophils to a final concentration of 20 μM prior to the addition of GM-CSF (50 units/ml). Control wells received either no GM-CSF or GM-CSF (50 units/ml) in the absence of inhibitor. Neutrophils are cultured for 18 h at 37° C. prior to harvest and prepared for sub G1 analysis, as previously described.
Neutrophils are seeded at 2×10^6/ml in a 24 well plate in full culture medium (1 ml/well). […]

MIAPaCa-2 and HuTu80 = details: cited from earlier work
CAL27 tumour cell line = details: relatively low basal DPD activity; cited from earlier work
MIAPaCa-2 cells = details: nude mouse, subcutaneous MIAPaCa-2; cited from earlier work
Walker 256 tumour = details: diet of 5.5% GLA; cited from earlier work
bone marrow derived DC = details: pretreatment; cited from earlier work
[2] = test system: MCF-7 human breast cancer cells; details: inhibition of FAS with cerulenin; cited from earlier work
[3] = test system: redox related genes such as heme oxygenase 1 and Glutathione reductase; details: cited from earlier work
TF-1 cells [4] = experiment: Overexpression of identified genes in TF1 cells, viability by FSc/SSc; format: cell-based, human; details: 96 h post transduction, versus control plasmid Pms*H
From the text: To assess the apoptotic activity of the apoptosis-associated genes identified herein, TF1 cells are transduced with either a plasmid expressing the gene of interest coding sequence or a control plasmid (PMs*H). The gene coding sequence encoding the amino acid sequence set out in Table 1 is cloned into the retroviral expression vector pMSCV (Clontech). Plasmids are transfected into the retroviral packaging cell line Phoenix 293 (Standford) using the CalPhos Mammalian Transfection Kit (Clontech) according to the manufacturer's instructions. Retrovirus is harvested 72 hours later. Retrovirus is transduced to TF 1 cells by incubation for 18 hours. Media is changed and cells are incubated for an additional 96 hours.
The cells are examined for viability after 96 hours using forward scatter/side scatter parameters.

TF-1 cells [5] = experiment: TF-1 apoptosis by light scatter analysis (live gate); format: cell-based, human; details: 48 h with GM-CSF 2 ng/ml (35% upon factor withdrawal)
Method: Light Scatter Analysis takes advantage of the fact that by using the laser beam of a flow cytometer one can determine the size (Forward Scatter) and granularity (Side Scatter) of a cell. The morphological changes associated with apoptosis, such as decreased size (shrinkage) and granularity affect these parameters. As a consequence, cells undergoing apoptosis will move to the left and slightly down, from the parameters of a healthy population.
TF-1 cells are plated into 24 well plates (2×10^5/ml) and are cultured for 48 h in the presence or absence of GM-CSF (2 ng/ml). Cells are then harvested by centrifugation (1000 rpm, for 10 min) and washed in PBS. The pellet is resuspended in PBS (2×10^5 cells/ml) and acquired by a FacsCalibre. Forward and Side scatter parameters are assessed using Cell Quest software.
Culturing TF-1 cells in the absence of GM-CSF induces cell death. This death induces morphological changes in the Forward and Side Scatter parameters that is detected by FacsCalibre analysis. Consequently, by observing the percentage of cells in the live gate (which is an arbitrary region pre-set on a healthy population of TF-1 cells grown in the presence of GM-CSF (2 ng/ml)), one observes that there is a decrease in the percentage of cells with these light scatter parameters, when cytokine is withdrawn.

TF-1 cells [6] = experiment: TF-1 apoptosis by sub G1 analysis; format: cell-based, human; details: 48 h with GM-CSF (approximately 55% in its absence)
Method: TF-1 cells are cultured for 48 h in the presence or absence of GM-CSF (2 ng/ml). Cells are then harvested by centrifugation (1000 rpm, for 10 min) and washed in PBS. The pellet is resuspended in PBS (2×10^5 cells/ml) and 1 ml is then added in a dropwise fashion to ice cold 70% EtoH whilst continuously vortexing. Cells are then permeabilized by incubating at −20° C. for 24 h. To stain DNA, cells are centrifuged and washed in PBS. Cells are resuspended in 500 μl Propidium Iodide Buffer (Propidium iodide (50 μg/ml; Sigma); RNAse A (50 μg/ml; Sigma) in Phosphate Buffered Saline (PBS; Sigma) for 15 min in the dark before flow cytometric analysis using a FacsCalibre (Becton Dickinson). Analysis is performed using Cell Quest software.

[7] = relatively high basal DPD activity

O=c1[nH]cc(F)c(=O)[nH]1 [5FU, 5-fluorouracil]
patients suffering from grade IV neutropenia ([1]; patients with a decreased DPD activity): 55% | patients suffering from grade IV neutropenia ([1]; patients with a normal DPD activity): 13%

CCCCCCCCCCCCCCCCCCOC(=O)OC1C(O)C(O)C(CO)C(O)C1OC (stereo not shown) [AKT inhibitor]
GM-CSF mediated survival, sub G1 analysis (neutrophils; inhibitor 20 μM plus GM-CSF 50 units/ml, 18 h): survival is abrogated

Oc1cc(O)c(Cl)cn1 [CDHP, 5-chloro-2,4-dihydroxypyridine]
molar ratio (CDHP:5-FU) at maximum effect (MIAPaCa-2 and HuTu80; enhancement of 5-FU cytotoxicity): more than 0.2 | cell proliferation, CDHP by itself (MIAPaCa-2 and HuTu80; in vitro study): did not influence cell proliferation by itself | 5-FU cytotoxicity (MIAPaCa-2 and HuTu80; [7]): enhanced 5-FU cytotoxicity in a concentration-dependent manner | 5-fluorouracil (5-FU) degradation (MIAPaCa-2 and HuTu80; [7]): inhibit 5-fluorouracil (5-FU) degradation | 5-FU cytotoxicity (CAL27 tumour cell line): did not have any effect on 5-FU cytotoxicity

O=c1[nH]c(=O)n(C2CCCO2)cc1F (stereo not shown) [FT, tegafur]
tumour growth inhibition (MIAPaCa-2 cells): 21+/−25%

CCCCC/C=C\C/C=C\C/C=C\CCCCC(=O)O [GLA, Gamma-linolenic acid]
decrease in CTP1 activity (Walker 256 tumour): 62% | reduction of tumour growth (Walker 256 tumour): 45%

N[C@H]1CONC1=O [L-cycloserine]
endogenous ceramide levels and tumor-induced DC apoptosis (bone marrow derived DC): reduced endogenous ceramide levels and protected DC from tumor-induced apoptosis

CCCCCCCCCCCCCC(=O)O[C@@H]1[C@@H](C)[C@@]2(O)[C@@H](C=C(CO)C[C@]3(O)C(=O)C(C)=C[C@@H]23)[C@@H]2C(C)(C)[C@]12OC(C)=O [PMA]
endogenous ceramide levels and tumor-induced DC apoptosis (bone marrow derived DC): reduced endogenous ceramide levels and protected DC from tumor-induced apoptosis

C/C=C/C/C=C/CCC(=O)[C@H]1O[C@H]1C(N)=O [cerulenin]
CPT-1 and fatty acid oxidation [2]: causes carnitine palmitoyltransferase-1 (CPT-1) inhibition and fatty acid oxidation inhibition

CCOC(=O)[C@@]1(CCCCCCOc2ccc(Cl)cc2)CO1 [etomoxir]
expression of redox related genes [3]: induces up regulation of redox related genes

ELAFIN
apoptosis/viability by FSc/SSc parameters (TF-1 cells [4]): induces apoptosis in TF-1 cells

GM-CSF: 22 kDa proinflammatory cytokine released by several activated cell types including monocytes and T cells
percentage of cells in the live gate (TF-1 cells [5]): 77% | cells with sub-G1 profiles (TF-1 cells [6]): 5% | percentage of cells with a sub G1 profile (neutrophils; neutrophils cultured overnight with GM-CSF (65% without)): 9.7%
